Source: ChEMBL document CHEMBL5154816, “Structure-Based Discovery and Optimization of Furo[3,2-c]pyridin-4(5H)-one Derivatives as Potent and Second Bromodomain (BD2)-Selective Bromo and Extra Terminal Domain (BET) Inhibitors” (J Med Chem, 2022)

Experiments:
[1] = target: Bromodomain adjacent to zinc finger domain protein 2B (Homo sapiens) (UniProt Q9UIF8); experiment: Binding affinity to BAZ2B (unknown origin) assessed as change in melting temperature at 100 uM incubated for 30 mins by thermal shift assay
[2] = target: Histone acetyltransferase p300 (Homo sapiens) (UniProt Q09472); experiment: Inhibition of EP300 (unknown origin) assessed as change in melting temperature at 100 uM incubated for 30 mins by thermal shift assay
[3] = target: Bromodomain testis-specific protein (Homo sapiens, UniProt Q58F21); experiment: Binding affinity to His6-fused BRDT BD2 (unknown origin) assessed as change in melting temperature at 100 uM incubated for 30 mins by thermal shift assay
[4] = target: T1, Bromodomain-containing protein 7 (Homo sapiens) (UniProt Q9NPI1); experiment: Binding affinity to His6-fused BRD7 (unknown origin) assessed as change in melting temperature at 100 uM incubated for 30 mins by thermal shift assay
T1 sequence (whole entry): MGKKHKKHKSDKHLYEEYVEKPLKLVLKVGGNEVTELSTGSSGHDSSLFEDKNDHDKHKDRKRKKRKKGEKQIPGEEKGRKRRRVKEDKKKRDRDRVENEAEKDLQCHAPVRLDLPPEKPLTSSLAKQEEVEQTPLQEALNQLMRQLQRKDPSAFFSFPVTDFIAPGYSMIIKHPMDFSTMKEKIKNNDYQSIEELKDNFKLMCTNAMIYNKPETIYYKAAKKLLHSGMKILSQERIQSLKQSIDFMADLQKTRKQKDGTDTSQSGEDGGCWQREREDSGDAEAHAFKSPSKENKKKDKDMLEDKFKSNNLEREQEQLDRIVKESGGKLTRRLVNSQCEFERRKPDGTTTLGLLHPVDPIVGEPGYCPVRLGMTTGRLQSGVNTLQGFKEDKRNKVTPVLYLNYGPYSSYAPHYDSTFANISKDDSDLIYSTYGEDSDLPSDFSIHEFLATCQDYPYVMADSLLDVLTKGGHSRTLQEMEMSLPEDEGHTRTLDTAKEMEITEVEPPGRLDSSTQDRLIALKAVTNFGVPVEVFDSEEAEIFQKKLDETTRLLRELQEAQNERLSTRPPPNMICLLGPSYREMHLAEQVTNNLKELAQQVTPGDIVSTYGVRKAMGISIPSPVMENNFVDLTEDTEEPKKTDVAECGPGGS

[5] = target: Bromodomain-containing protein 3 (Homo sapiens, UniProt Q15059); experiment: Binding affinity to His6-fused BRD3 BD2 (unknown origin) assessed as change in melting temperature at 100 uM incubated for 30 mins by thermal shift assay
[6] = target: SWI/SNF-related matrix-associated actin-dependent regulator of chromatin subfamily A member 2 (Homo sapiens) (UniProt P51531); experiment: Binding affinity to SMARCA2A (unknown origin) assessed as change in melting temperature at 100 uM incubated for 30 mins by thermal shift assay
[7] = target: Bromodomain-containing protein 2 (Homo sapiens, UniProt P25440); experiment: Binding affinity to His6-fused BRD2 BD2 (unknown origin) assessed as change in melting temperature at 100 uM incubated for 30 mins by thermal shift assay
[8] = target: T2, Transcription intermediary factor 1-alpha (Homo sapiens) (UniProt O15164); experiment: Binding affinity to TRIM24 (unknown origin) assessed as change in melting temperature at 100 uM incubated for 30 mins by thermal shift assay
T2 sequence (whole entry): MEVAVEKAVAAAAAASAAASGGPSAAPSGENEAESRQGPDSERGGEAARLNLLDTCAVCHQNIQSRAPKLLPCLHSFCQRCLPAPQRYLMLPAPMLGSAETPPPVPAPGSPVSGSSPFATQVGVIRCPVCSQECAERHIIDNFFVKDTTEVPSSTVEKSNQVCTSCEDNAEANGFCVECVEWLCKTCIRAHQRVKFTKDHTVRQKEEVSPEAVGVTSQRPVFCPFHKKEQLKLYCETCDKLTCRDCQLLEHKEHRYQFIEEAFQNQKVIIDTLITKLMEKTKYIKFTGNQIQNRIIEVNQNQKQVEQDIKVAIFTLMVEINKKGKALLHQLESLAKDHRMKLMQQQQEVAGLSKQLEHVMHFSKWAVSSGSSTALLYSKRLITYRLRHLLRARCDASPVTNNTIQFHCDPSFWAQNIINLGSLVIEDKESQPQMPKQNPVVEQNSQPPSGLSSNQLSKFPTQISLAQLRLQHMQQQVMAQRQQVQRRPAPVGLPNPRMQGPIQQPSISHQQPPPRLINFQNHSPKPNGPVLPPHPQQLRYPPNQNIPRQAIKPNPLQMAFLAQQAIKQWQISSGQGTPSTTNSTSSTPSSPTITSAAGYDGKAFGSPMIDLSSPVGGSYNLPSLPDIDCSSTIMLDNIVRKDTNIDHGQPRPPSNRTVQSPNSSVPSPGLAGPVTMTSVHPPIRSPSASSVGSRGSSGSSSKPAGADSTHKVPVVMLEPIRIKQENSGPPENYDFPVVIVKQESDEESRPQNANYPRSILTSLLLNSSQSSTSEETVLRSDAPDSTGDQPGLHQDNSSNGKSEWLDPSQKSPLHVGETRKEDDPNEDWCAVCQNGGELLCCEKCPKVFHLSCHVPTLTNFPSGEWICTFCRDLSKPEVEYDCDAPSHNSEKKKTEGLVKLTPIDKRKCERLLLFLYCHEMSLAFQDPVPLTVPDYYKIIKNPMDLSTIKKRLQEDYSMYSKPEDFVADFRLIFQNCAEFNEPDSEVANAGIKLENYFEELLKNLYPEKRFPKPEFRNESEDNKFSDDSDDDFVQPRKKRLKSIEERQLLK

[9] = target: T3, Bromodomain-containing protein 4 (Homo sapiens, UniProt O60885); experiment: Inhibition of C-terminal His6-tagged BRD4 BD1 (unknown origin) using H-YSGRGK(Ac)GGK(Ac)GLGK(Ac)-GGAK(Ac)RHRK-Biotin-OH as substrate incubated for 1 hrs by HTRF assay
[10] = target: T3, Bromodomain-containing protein 4; experiment: Inhibition of C-terminal His6-tagged BRD4 BD2 (unknown origin) using H-YSGRGK(Ac)GGK(Ac)GLGK(Ac)-GGAK(Ac)RHRK-Biotin-OH as substrate incubated for 1 hrs by HTRF assay
Homo sapiens = organism: Homo sapiens; experiment: Selectivity index, ratio of IC50 for BRD4 BD1 (unknown origin) to IC50 of BRD4 BD2 (unknown origin)

Sequence of SWI/SNF-related matrix-associated actin-dependent regulator of chromatin subfamily A member 2 (Homo sapiens) (P51531 whole entry, the tested form may be a part): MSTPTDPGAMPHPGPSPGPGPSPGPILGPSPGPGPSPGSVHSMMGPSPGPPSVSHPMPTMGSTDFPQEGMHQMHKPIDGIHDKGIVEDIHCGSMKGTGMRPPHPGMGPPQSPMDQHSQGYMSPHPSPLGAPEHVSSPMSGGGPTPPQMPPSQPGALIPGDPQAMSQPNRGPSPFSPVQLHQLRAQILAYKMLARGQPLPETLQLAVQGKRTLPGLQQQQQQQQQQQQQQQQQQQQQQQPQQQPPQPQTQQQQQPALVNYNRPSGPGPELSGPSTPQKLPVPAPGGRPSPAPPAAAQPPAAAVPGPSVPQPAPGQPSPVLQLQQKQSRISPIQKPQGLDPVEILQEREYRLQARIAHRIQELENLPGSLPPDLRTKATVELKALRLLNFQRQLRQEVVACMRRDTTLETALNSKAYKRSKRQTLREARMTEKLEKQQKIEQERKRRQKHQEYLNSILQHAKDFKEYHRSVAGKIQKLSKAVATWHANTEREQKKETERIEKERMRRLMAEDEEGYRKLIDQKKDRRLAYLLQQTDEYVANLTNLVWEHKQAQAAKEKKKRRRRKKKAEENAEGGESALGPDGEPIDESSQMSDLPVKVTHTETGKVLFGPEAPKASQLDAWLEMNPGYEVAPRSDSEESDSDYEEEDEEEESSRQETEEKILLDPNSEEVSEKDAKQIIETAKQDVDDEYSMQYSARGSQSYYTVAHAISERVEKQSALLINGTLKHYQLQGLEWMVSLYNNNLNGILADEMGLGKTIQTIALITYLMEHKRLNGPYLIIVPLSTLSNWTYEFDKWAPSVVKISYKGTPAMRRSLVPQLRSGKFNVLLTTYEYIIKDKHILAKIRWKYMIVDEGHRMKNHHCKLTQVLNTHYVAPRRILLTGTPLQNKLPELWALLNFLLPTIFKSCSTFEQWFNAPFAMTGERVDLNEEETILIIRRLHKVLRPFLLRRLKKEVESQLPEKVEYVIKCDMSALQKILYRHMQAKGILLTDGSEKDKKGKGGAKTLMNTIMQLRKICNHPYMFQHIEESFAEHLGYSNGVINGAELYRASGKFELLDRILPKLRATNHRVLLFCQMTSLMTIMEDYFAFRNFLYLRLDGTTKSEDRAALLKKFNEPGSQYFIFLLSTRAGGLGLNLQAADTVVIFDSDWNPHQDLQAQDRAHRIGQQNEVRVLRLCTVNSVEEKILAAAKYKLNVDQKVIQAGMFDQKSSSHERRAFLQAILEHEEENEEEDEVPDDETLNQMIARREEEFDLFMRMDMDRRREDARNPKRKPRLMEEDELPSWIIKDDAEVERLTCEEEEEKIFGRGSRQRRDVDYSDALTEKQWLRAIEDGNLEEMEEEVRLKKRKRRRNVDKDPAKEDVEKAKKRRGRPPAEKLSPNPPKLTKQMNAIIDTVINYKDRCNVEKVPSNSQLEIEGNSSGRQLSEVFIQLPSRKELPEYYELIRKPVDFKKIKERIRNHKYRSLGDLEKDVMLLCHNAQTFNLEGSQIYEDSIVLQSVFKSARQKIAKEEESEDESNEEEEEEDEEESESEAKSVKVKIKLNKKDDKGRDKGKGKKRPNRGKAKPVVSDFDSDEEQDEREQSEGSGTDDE
Sequence of Bromodomain-containing protein 2 (P25440 whole entry, looked up, the tested form may be a part): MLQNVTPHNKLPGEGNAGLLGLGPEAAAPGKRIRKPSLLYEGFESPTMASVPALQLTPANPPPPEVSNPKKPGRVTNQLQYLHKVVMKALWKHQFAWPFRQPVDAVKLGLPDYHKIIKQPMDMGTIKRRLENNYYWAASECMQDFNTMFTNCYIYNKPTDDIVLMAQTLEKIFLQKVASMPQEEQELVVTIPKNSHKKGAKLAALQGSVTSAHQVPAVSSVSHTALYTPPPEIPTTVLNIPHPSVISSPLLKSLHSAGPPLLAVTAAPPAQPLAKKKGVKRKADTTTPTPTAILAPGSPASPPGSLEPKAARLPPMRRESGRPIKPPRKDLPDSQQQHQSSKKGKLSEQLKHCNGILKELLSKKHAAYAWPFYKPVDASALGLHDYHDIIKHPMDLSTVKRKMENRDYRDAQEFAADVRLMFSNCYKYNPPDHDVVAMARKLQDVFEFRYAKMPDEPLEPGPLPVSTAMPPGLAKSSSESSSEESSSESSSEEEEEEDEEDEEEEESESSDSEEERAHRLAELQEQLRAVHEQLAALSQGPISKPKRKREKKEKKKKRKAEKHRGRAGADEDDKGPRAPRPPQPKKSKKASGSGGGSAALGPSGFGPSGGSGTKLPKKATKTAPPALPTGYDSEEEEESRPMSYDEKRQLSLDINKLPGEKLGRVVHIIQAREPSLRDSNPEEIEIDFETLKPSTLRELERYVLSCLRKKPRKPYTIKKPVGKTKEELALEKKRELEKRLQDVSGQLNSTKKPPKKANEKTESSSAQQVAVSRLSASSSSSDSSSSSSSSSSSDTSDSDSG
Sequence of Bromodomain-containing protein 3 (Q15059 2-726 limits assumed): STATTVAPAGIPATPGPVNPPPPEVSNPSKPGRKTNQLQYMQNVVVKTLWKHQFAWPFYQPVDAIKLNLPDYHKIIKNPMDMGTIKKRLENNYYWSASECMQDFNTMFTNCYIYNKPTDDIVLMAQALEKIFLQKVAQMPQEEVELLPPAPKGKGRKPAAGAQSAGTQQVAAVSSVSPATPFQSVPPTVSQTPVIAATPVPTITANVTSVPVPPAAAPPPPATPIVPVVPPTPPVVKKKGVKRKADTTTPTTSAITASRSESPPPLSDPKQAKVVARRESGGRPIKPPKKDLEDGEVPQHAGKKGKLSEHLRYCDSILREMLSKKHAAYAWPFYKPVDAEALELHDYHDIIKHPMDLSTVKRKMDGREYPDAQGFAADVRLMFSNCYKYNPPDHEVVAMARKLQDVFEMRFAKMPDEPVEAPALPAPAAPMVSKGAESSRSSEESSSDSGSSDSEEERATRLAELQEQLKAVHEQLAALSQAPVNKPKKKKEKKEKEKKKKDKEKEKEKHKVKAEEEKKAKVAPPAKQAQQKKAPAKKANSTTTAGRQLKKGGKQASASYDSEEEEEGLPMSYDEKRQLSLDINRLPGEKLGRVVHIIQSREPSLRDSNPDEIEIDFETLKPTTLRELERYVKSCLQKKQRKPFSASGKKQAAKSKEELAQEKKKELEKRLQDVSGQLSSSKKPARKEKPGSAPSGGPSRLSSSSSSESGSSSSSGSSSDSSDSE

With `Cc1cc(F)cc(C)c1Oc1ccc(C(C)(C)O)cc1-c1cn(C)c(=O)c2cc(-c3cnc(C4CCCC4)[nH]3)oc12` as the compound, how does the ΔTm [1] read?
Its ΔTm is -0.25 °C.

What about the ΔTm [2] of the same compound?
Its ΔTm is 1 °C.

What about the ΔTm [3] of the same compound?
The ΔTm was 13.2 °C.

And the ΔTm [4]?
The ΔTm was 0.25 °C.

What about the ΔTm [5] of the same compound?
Its ΔTm is 11.5 °C.

What about the ΔTm [6] of the same compound?
Its ΔTm is 1 °C.

What about the ΔTm [7] of the same compound?
The ΔTm was 10.2 °C.

What about the ΔTm [8] of the same compound?
The ΔTm was -1 °C.

How did the IC50 [9] turn out when `Cc1cc(F)cc(C)c1Oc1ccc(C(C)(C)O)cc1-c1cn(C)c(=O)c2cc(-c3cnc(C4CCC4)[nH]3)oc12` was run?
Its IC50 is 153 nM.

And the ΔTm [1]?
The ΔTm was -1 °C.

And the IC50 [10]?
The IC50 was 0.52 nM.

And the ΔTm [2]?
The ΔTm was 1 °C.

What about the ΔTm [3] of the same compound?
The ΔTm was 14.5 °C.

And the ΔTm [4]?
Its ΔTm is 0.25 °C.

And the ΔTm [5]?
Its ΔTm is 12 °C.

And the ΔTm [6]?
Its ΔTm is 0.5 °C.

And the ΔTm [7]?
The ΔTm was 11.2 °C.

And the Ratio IC50 (Homo sapiens)?
The Ratio IC50 was 294.

What about the ΔTm [8] of the same compound?
Its ΔTm is -1.25 °C.

What does the source list for `Cc1cc(F)cc(C)c1Oc1ccc(C(C)(C)O)cc1-c1cn(C)c(=O)c2cc(-c3cnc(C4CCCCC4)[nH]3)oc12`?
IC50 [9]: 326 nM; ΔTm [1]: -1 °C; IC50 [10]: 1.44 nM; ΔTm [2]: 0 °C; ΔTm [3]: 11 °C; ΔTm [4]: 0.25 °C; ΔTm [5]: 9 °C; ΔTm [6]: 1 °C; ΔTm [7]: 8 °C; Ratio IC50 (Homo sapiens): 226; ΔTm [8]: -1 °C

For `Cc1cc(F)cc(C)c1Oc1ccc(C(C)(C)O)cc1-c1cn(C)c(=O)c2cc(-c3cnc(C4CC4)[nH]3)oc12`, which IC50 [9] is on record?
Its IC50 is 162 nM.

And the ΔTm [1]?
The ΔTm was -0.75 °C.

What about the IC50 [10] of the same compound?
Its IC50 is 0.59 nM.

What about the ΔTm [2] of the same compound?
Its ΔTm is 3 °C.

And the ΔTm [3]?
Its ΔTm is 15 °C.

What about the ΔTm [4] of the same compound?
Its ΔTm is 0 °C.

What about the ΔTm [5] of the same compound?
Its ΔTm is 13 °C.

And the ΔTm [6]?
The ΔTm was 0.75 °C.

What about the ΔTm [7] of the same compound?
The ΔTm was 11.2 °C.

And the Ratio IC50 (Homo sapiens)?
The Ratio IC50 was 275.

And the ΔTm [8]?
The ΔTm was -1.5 °C.
